Reference: patent publication US20260227411A1, “CONJUGATED METABOLITES FOR CANCER DETECTION AND TREATMENT” (VANDERBILT UNIVERSITY, priority 2023, published 2026)

Columns and labels:
[1] = tested on: Gif-rtTA; TetO-Cre; Kras^G12D (GCK) mice; assay: In vivo A939572 treatment of GCK mice; details: 20 mg/kg intraperitoneal daily for 2 weeks
Description: All experiments involving mice used in this study followed protocols approved by the Institutional Animal Care and Use Committees of Vanderbilt University Medical Center. Littermates or age-matched mice were randomly allocated to experimental or control groups. Animal weights were recorded at initiation of experiment and at the time of euthanasia. To generate the Gif-rtTA; TetO-Cre; Kras^G12D (GCK) mice, the Gif-rtTA mice were crossed with TetO-Cre mice and Lox-Stop-Lox (LSL)-Kras^G12D mice (no. 006224 and 008179, Jackson Laboratories). For the induction of Cre-mediated recombination, 6-week-old mice were administered with doxycycline water at a concentration of 1 mg/mL for 2 weeks. Mice were sacrificed at 2 to 14 weeks after doxycycline treatment for histological examination. For in vivo A939572 treatment, A939572 (HY-50709; MedChemExpress) was dissolved in dimethyl sulfoxide (DMSO) as a 100 mg/mL stock and stored at −80° C. in aliquots. The A939572 was administered daily for two weeks by intraperitoneal injection (20 mg/kg diluted in corn oil) to mice at 6 weeks after doxycycline treatment. Mice were sacrificed within a day after the last A939572 treatment.
Mouse tissues were isolated and fixed overnight in 4% paraformaldehyde, embedded in paraffin. Paraffin-embedded sections were sectioned at a thickness of five-micrometer and stained with hematoxylin and eosin (H&E). For immunostaining, unstained paraffin tissue sections were deparaffinized in HistoClear (HS-200, National Diagnostics) and rehydrated through a serial dilution of ethanol. Antigen retrieval was performed in target retrieval solution (S1699 or S2367, Agilent) using a pressure cooker for 15 minutes. Sections were rinsed in dH2O and incubated with Serum-free Protein Block Solution (X0909, Agilent) for 1.5 hours at room temperature (RT). Sections were additionally incubated with Mouse on Mouse Blocking Reagent (MKB-2213-1, Vector Laboratories) for 30 min at RT to block nonspecific staining with primary antibodies generated in mice on mouse tissues. Primary antibodies were diluted in Antibody Diluent (S3022, Agilent) and applied to sections overnight at 4° C.
For immunofluorescence, paraffin sections were washed with 1×PBS three times and incubated with Alexa-conjugated secondary antibodies (Life Technologies, 1:500) for 1 hour at RT. Sections were washed with 1×PBS three times and incubated with Hoechst 33342 (62249, Thermo Fisher Scientific, 1:5000) for 5 min at RT. The sections were then washed with 1×PBS three times and mounted with Prolong gold anti-fade reagent (P36934, Thermo Fisher Scientific). Images were captured on a Zeiss Axio Imager M2 microscope with Axiovision digital imaging system at 20× magnification. For immunohistochemistry, paraffin sections were washed with 1×PBS three times and incubated with HRP-conjugated secondary antibodies (MP-7402, Vector Laboratories) for 15 min at RT. Sections were washed with 1×PBS three times and incubated with Envision+ Detection System Peroxidase/DAB substrate (Dako). Sections were then washed with dH2O and counterstained Mayer's Hematoxylin (MHS32, Sigma-Aldrich). The sections were dehydrated and mounted with aqueous mounting medium. The sections were scanned on an SCN400 Slide Scanner (Leica Biosystems) at 20× magnification. TUNEL staining was performed using the Click-iT Plus TUNEL assay kit, according to the manufacturer's protocol (C10618, Life Technologies).
H&E-stained sections were scanned in SCN400 Slide Scanner and analyzed by Aperio ImageScope software (Leica Biosystems). Gland types were classified using the same diagnostic criteria used for human tissue sections. Briefly, the gland representing foveolar hyperplasia without goblet cells and mucous metaplasia at the base was diagnosed as a pyloric metaplastic gland, while intestinal metaplasia was determined by presence of basophilic mucin droplet-containing cells in the foveolar region.

dysplastic organoids [2] = assay: Metabolic enzyme inhibitor treatment of mouse dysplastic organoids; assay type: cell-based
Description: (§1) Mouse gastric organoids were established from corpus of untreated or Gif-rtTA; TetO-Cre; KrasG12D (GCK) mouse stomachs as described previously. The GCK mouse gastric organoids were cultured in ECM Gel (E1270, Sigma-Aldrich) or Cultrex® Reduced Growth Factor Basement Membrane Extract, Type R1 (3433-005-R1, R&D systems) with Mouse IntestiCult medium (06005, StemCell Technology) supplemented with 1% of penicillin/streptomycin (2441832, Gibco) in 48-well plates. The medium was replaced every 3 days and organoids were split every 3 to 5 days. Human gastric organoids were previously established from patients who underwent curative gastrectomy as described. The human gastric organoids were cultured in Corning™ Matrigel™ Membrane Matrix (356231, Thermo Fisher Scientific) with Human IntestiCult medium (06010, StemCell Technology) supplemented with 1% of penicillin/streptomycin, 0.2% of MycoZap (VZA-2031, Lonza) in a 48-well plate.
For metabolic enzyme inhibitor treatment, the media was switched to metabolic enzyme inhibitor containing media at one day after splitting the mouse gastric organoids and cultured for 3 days. For metabolite treatment, mouse gastric organoids were treated 100 nM A939572 with metabolites (cis-11-eicosenoic acid or cis-7,10,13,16-docosatetraenoic acid) at one day after splitting the mouse gastric organoids and cultured for 3 days. […] Quantitative data analyses were performed using at least 3 wells of images at 4× magnification. For measurement of organoid growth, phase contrast images of organoids were captured over time and measured at the widest diameters using the ZEN 3.3 blue edition (Zeiss) measuring tool. […]
To determine the role of metabolic switch in dysplastic cells, expression levels of key metabolic enzymes, important for glycolysis or FA metabolism, were examined using gastric organoids established from each stage of GCK mice (FIG. 4A). […] The functional roles of metabolic pathways were assessed using key enzyme inhibitors in dysplastic organoids which highly expressed SCD1 (FIG. 4E). […]

[3] = tested on: human gastric organoid lines; assay: A939572 treatment of human gastric organoid lines; assay type: cell-based; details: 1 μM for human
normal gastric organoids = assay: A939572 treatment of normal gastric organoids; assay type: cell-based, mouse; details: 100 nM A939572
Description: as §1, with “The human gastric organoids were cultured in Corning™ Matrigel™ Membrane Matrix (356231, Thermo Fisher Scientific) with Human IntestiCult medium (06010, StemCell Technology) supplemented with 1% of penicillin/streptomycin, 0.2% of MycoZap (VZA-2031, Lonza) in a 48-well plate.” left out
For metabolic enzyme inhibitor treatment, the media was switched to metabolic enzyme inhibitor containing media at one day after splitting the mouse gastric organoids and cultured for 3 days. […] Quantitative data analyses were performed using at least 3 wells of images at 4× magnification. For measurement of organoid growth, phase contrast images of organoids were captured over time and measured at the widest diameters using the ZEN 3.3 blue edition (Zeiss) measuring tool. […]

dysplastic cells = assay: Subcellular localization of NBD-EA in 2-dimensional monolayer culture; assay type: cell-based, mouse
Description: Mouse gastric organoids were dissociated into single cells and dissociated cells (5,000 cells/well) were seeded on the collagen-coated 8-well chamber slide (ibidi) in Mouse IntestiCult medium (06005, StemCell Technology) for two days until the cells reach at 50% confluency. The cells were incubated with NBD (Compound A) or NBD-conjugated Eicosenoic acid over time and then stained with 100 nM MitoTracker™ Red CMXRos (M7512, Thermo Fisher Scientific) for 20 min at 37° C. The cells were washed with pre-warmed 1×PBS three times and counterstained with Hoechst for 5 min at RT. Confocal imaging was performed on a Zeiss LSM 880 using 63× magnification.

dysplastic organoids [4] = assay: Metabolite rescue of A939572-treated dysplastic organoids; assay type: cell-based, mouse
Description: For metabolic enzyme inhibitor treatment, the media was switched to metabolic enzyme inhibitor containing media at one day after splitting the mouse gastric organoids and cultured for 3 days. For metabolite treatment, mouse gastric organoids were treated 100 nM A939572 with metabolites (cis-11-eicosenoic acid or cis-7,10,13,16-docosatetraenoic acid) at one day after splitting the mouse gastric organoids and cultured for 3 days. The EVOS M7000 inverted microscope (Thermo Fisher Scientific) or JuLI™ stage, a Real-Time Cell History Recorder (NanoEntek) were used to capture phase contrast images of the organoids or monitor the growth and morphological changes of the organoids in real-time. Quantitative data analyses were performed using at least 3 wells of images at 4× magnification. For measurement of organoid growth, phase contrast images of organoids were captured over time and measured at the widest diameters using the ZEN 3.3 blue edition (Zeiss) measuring tool. For Calcein AM/Ethidium-1(EthD-1) staining, mouse gastric organoids were cultured for 1 day after splitting and transferred to microfluidic-based flowchips (Protein Fluidics) that can enable 3D cell-based assay. The media containing 100 nM A939572 with metabolites (cis-11-eicosenoic acid or cis-7,10,13,16-docosatetraenoic acid) was added to the top of the organoids and cultured for 3 days. Then, the organoids were stained with […] (L3224, Thermo Fisher Scientific) for 30 min at 37° C. Confocal imaging was performed on a Zeiss LSM 880 using a 20× magnification. To prepare Formalin-Fixed, Paraffin-Embedded (FFPE) organoid sections, whole mouse or human gastric organoids in Matrigel™ were fixed in 4% PFA for 30 min at RT and washed with 1×PBS twice. The organoids were embedded in Epredia™ HistoGel™ (HG-4000-012, Thermo Fisher Scientific) and processed according to a standard histological protocol for paraffin embedding.
To address how and why dysplastic cells utilize the SCD-dependent FA desaturation, experiments examined the functions of two different unsaturated long-chain FAs, MUFA (FFA 20:1) and PUFA (FFA 22:4), which were abundant in dysplasia. Two metabolites, Eicosenoic acid (EA; 20:1n9, MUFA) and Docosatetraenoic acid (DA; 22:4n6, PUFA) (FIG. 7A) were selected based on the enhanced fragment ions detected from imaging mass spectrometry (FIG. 3E). Dysplastic organoids were co-treated with A939572, in combination with either EA or DA for 3 days. […] To determine the subcellular localization of EA in dysplastic cells, EA was conjugated with NBD, a green-fluorescent compound (NBD-EA) (FIG. 7B and FIG. 8A-B). […] Since the EA is imported into mitochondria, experiments further examined whether the EA undergoes FA oxidation which occurs in the mitochondrial aerobic metabolism and produces energy substrate for the TCA cycle.

NCI-N87 = assay: EA-DM1 treatment of gastric cancer cell line NCI-N87; assay type: cell-based; details: 100 nM
Description: (§2) FIG. 9A-B show cells treated with EA-DM1 (cis-11-eicosenoic acid conjugated to mertansine (DM1)). […] DMSO was used as a vehicle control. […] The NIH-3T3 cell line was used as a negative control, and mouse normal cells and DMSO were used as a vehicle control.
(§3) To evaluate whether EA-DM1 (cis-11-eicosenoic acid conjugated to mertansine (DM1)) could be internalized and release free DM1 toxin into the cytosol, two different gastric cancer cell lines, AGS and NCI-N87, were treated with EA-DM1 for 2 days (FIG. 9A-B). Gastric cancer cells died within 2 days after the EA-DM1 treatment at 100 nM concentration (FIG. 9A).

NIH-3T3 cells = assay: EA-DM1 treatment of NIH-3T3 cells (negative control); assay type: cell-based, mouse; details: 5 nM, 2 days
Description: as §2, §3

AGS = assay: EA-DM1 treatment of gastric cancer cell line AGS; assay type: cell-based
Description: as §2, §3

[5] = co-treated with 100 nM A939572 for 3 days

## CNC(=O)c1cccc(NC(=O)N2CCC(Oc3ccccc3Cl)CC2)c1 [A939572, 4-(2-chlorophenoxy)-N-(3-(methylcarbamoyl)phenyl)piperidine-1-carboxamide]
[1]
  F4/80+CD68+ macrophages: slightly increased only at the base of glands
  F4/80+CD68- macrophage infiltration: significantly increased in the transitioning and surface areas
  SPEM cells after treatment: still present at the gland base and not co-positive for cleaved caspase-3 or TUNEL signal
  dead cells within the transitioning cell zone (cleaved caspase-3, TUNEL): significant increase in dead cells
[1]; at 6 weeks after doxycycline
  effects in other organs: without any effects in other organs
  gastric mucosa histology (H&E): flattened mucosa and loss of histological characteristics of dysplastic cells in the transitioning and surface areas of glands
Dysplastic organoids [2]; 100 nM A939572
  time within which dysplastic organoid growth and survival were impeded: ≤ 1 days
Dysplastic organoids [2]; 100 nM A939572, IF staining
  cell proliferation (Ki-67) in dysplastic organoids: a decrease in cell proliferation
  cleaved caspase-3 positive apoptotic cells in dysplastic organoids: accumulation of cleaved caspase-3 positive apoptotic cells in the central lumen of dysplastic organoids
[3]; organoid lines with dysplastic histology expressing both SCD and Trop2
  time within which organoids died after treatment: ≤ 6 days
[3]; organoids with low level of SCD, Trop2 negative (metaplastic)
  response to treatment: did not respond to the treatment
Normal gastric organoids
  response of normal gastric organoids: did not show any significant changes

## CCCCCCCC/C=C\CCCCCCCCCC(=O)Nc1ccc([N+](=O)[O-])c2nonc12 [NBD-EA, NBD-cis-11-Eicosenoic acid (C20:1, n-9)]
Dysplastic cells; 6 h after treatment
  NBD fluorescent signal in dysplastic cells: not detectable
Dysplastic cells; 24 h
  NBD fluorescent signal in dysplastic cells: strongly accumulated in mitochondria
Dysplastic cells; 48 h
  NBD fluorescent signal in dysplastic cells: weakly maintained

## CCCCCC=CCC=CCC=CC/C=C\CCCCCC(=O)O [DA, cis-7,10,13,16-docosatetraenoic acid]
Dysplastic organoids [4]; [5]
  rescue of dysplastic organoids from SCD inhibition (organoid size): did not show any differences compared to the organoids treated only with A939572

## CCCCCCCC/C=C\CCCCCCCCCC(=O)O [EA, cis-11-eicosenoic acid]
Dysplastic organoids [4]; [5]
  organoid structure: not disrupted and showed clear central lumens
  rescue of dysplastic organoids from SCD inhibition (organoid size): recovered from SCD inhibition and displayed a significant increase in size

## CCCCCCCC/C=C\CCCCCCCCCC(=O)N1CCN(C(=O)CSCCC(=O)N(C)[C@H](C)C(=O)O[C@@H]2CC(=O)N(C)c3cc(cc(OC)c3Cl)C/C(C)=C/C=C/[C@H](OC)[C@]3(O)C[C@@H](OC(=O)N3)[C@H](C)[C@H]3O[C@@]32C)CC1 [EA-DM1, (1^4S,1^6S,3^2S,3^3R,2R,4S,10E,12E,14R)-8^6-chloro-1^4-hydroxy-8^5,14-dimethoxy-3^3,2,7,10-tetramethyl-1^2,6-dioxo-7-aza-1(6,4)-oxazinana-3(2,3)-oxirana-8(1,3)-benzenacyclotetradecaphane-10,12-dien-4-yl N-(3-((2-(4-((Z)-icos-11-enoyl)piperazin-1-yl)-2-oxoethyl)thio)propanoyl)-N-methyl-L-alaninate]
NCI-N87
  time within which gastric cancer cells died after treatment: ≤ 2 days
NIH-3T3 cells
  changes in normal mouse fibroblast cells: no noticeable changes
AGS; 5 nM, 2 days
  targeting of gastric cancer cells: effectively targeted gastric cancer cells
AGS; 100 nM
  time within which gastric cancer cells died after treatment: ≤ 2 days

## C1CCC(C(CC2CCCCN2)C2CCCCC2)CC1 (stereo not drawn) [perhexiline]
Dysplastic organoids [4]; A939572, EA and perhexiline 10 μM, 3 days
  organoid growth after co-treatment: did not display any significant increase in organoid growth
Dysplastic organoids [4]; perhexiline 10 μM with A939572 and EA, 3 days
  effect of FA oxidation inhibition on rescue by EA: abolished rescue effects of EA in dysplastic organoids
